These results are taken from ChEMBL document CHEMBL3576835, “Design and synthesis of potent 1,2,4-trisubstituted imidazolinone derivatives with dual p38αMAPK and ERK1/2 inhibitory activity” (Eur J Med Chem, 2015).

Each structure is given as a SMILES string.

Assay [1] deals with Mitogen-activated protein kinase 14 (Homo sapiens, UniProt Q16539). The experiment in a line: Inhibition of p38alpha MAP kinase (unknown origin) using GFP-ATF2 as substrate after 1 hr by TR-FRET assay.
Assay [2] addresses Mitogen-activated protein kinase 3 (Homo sapiens, UniProt P27361). In words: Inhibition of ERK1 (unknown origin) using GFP-ATF2 as substrate after 1 hr by TR-FRET assay.
Assay [3] deals with Mitogen-activated protein kinase 1 (Homo sapiens, UniProt P28482). In words: Inhibition of ERK2 (unknown origin) using GFP-ATF2 as substrate after 1 hr by TR-FRET assay.
Assay [4] deals with MCF7. In words: Antiproliferative activity against human MCF7 cells assessed as inhibition of cell vaibility after 72 hrs by MTT assay. Type of assay: functional, cell-based. The settings on record: MCF7, 72 h.
The subject of assay [5] is T47D. The experiment in a line: Antiproliferative activity against human T47D cells assessed as inhibition of cell vaibility after 72 hrs by MTT assay. Type of assay: functional, cell-based.
Assay [6] in a line: Antiproliferative activity against human COLO205 cells assessed as inhibition of cell vaibility after 72 hrs by MTT assay. Type of assay: functional, cell-based. To be noted: COLO 205, 72 h.
For assay [7], the system named is HT-29. In words: Antiproliferative activity against human HT-29 cells assessed as inhibition of cell vaibility after 72 hrs by MTT assay. It is filed as functional, cell-based. The settings on record: HT-29, 72 h.
The test system of a further assay is K562. In words: Antiproliferative activity against human K562 cells assessed as inhibition of cell vaibility after 72 hrs by MTT assay. It is filed as functional, cell-based. To be noted: K562, 72 h.
Assay [8] deals with A549. The experiment in a line: Antiproliferative activity against human A549 cells assessed as inhibition of cell vaibility after 72 hrs by MTT assay. Type of assay: functional, cell-based. To be noted: A549, 72 h.
A short description of assay [9]: Antiproliferative activity against human LOXIMVI cells assessed as inhibition of cell vaibility after 72 hrs by MTT assay. It is filed as functional, cell-based. The settings on record: LOX IMVI.
For a further assay, the system named is MDA-MB-435. In words: Antiproliferative activity against human MDA-MB-435 cells assessed as inhibition of cell vaibility after 72 hrs by MTT assay. Type of assay: functional, cell-based. The settings on record: MDA-MB-435, 72 h.
In the next assay the test system is PC-3. The experiment in a line: Antiproliferative activity against human PC3 cells assessed as inhibition of cell vaibility after 72 hrs by MTT assay. It is filed as functional, cell-based. To be noted: PC-3, 72 h.
The subject of assay [10] is Vero. The experiment in a line: Cytotoxicity against African green monkey Vero cells assessed as inhibition of cell viability after 72 hrs by MTT assay. Type of assay: cell-based. The settings on record: Chlorocebus sabaeus.
Assay [11] has as its system MCF7. In words: Selectivity index, ratio of IC50 for African green monkey Vero cells to IC50 for human MCF7 cells. Type of assay: functional.
In assay [12] the test system is T47D. In words: Selectivity index, ratio of IC50 for African green monkey Vero cells to IC50 for human T47D cells. Type of assay: functional.
Assay [13] relates to Vero. In words: Selectivity index, ratio of IC50 for African green monkey Vero cells to IC50 for human COLO205 cells. It is filed as functional.
Assay [14] deals with HT-29. The experiment in a line: Selectivity index, ratio of IC50 for African green monkey Vero cells to IC50 for human HT-29 cells. It is filed as functional.
Assay [15] has as its system A549. In words: Selectivity index, ratio of IC50 for African green monkey Vero cells to IC50 for human A549 cells. Type of assay: functional.
Assay [16] concerns Vero. The experiment in a line: Selectivity index, ratio of IC50 for African green monkey Vero cells to IC50 for human LOXIMVI cells. Type of assay: functional.
Assay [17] relates to Vero. The experiment in a line: Selectivity index, ratio of IC50 for African green monkey Vero cells to IC50 for human MDA-MB-435 cells. Type of assay: functional.
Assay [18] relates to Vero. In words: Selectivity index, ratio of IC50 for African green monkey Vero cells to IC50 for human PC3 cells. Type of assay: functional.

Chain of Mitogen-activated protein kinase 1 (P28482 whole entry): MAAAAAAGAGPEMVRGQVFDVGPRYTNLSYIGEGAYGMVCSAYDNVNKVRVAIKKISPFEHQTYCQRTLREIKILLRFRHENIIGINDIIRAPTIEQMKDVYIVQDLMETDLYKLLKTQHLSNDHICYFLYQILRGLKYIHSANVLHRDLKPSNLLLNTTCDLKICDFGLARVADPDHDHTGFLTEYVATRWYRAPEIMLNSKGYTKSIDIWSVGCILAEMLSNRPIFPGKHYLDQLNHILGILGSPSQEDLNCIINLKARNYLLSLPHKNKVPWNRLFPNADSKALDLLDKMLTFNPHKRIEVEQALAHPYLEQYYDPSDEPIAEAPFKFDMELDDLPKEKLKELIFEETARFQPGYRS
Chain of Mitogen-activated protein kinase 14 (Q16539 whole entry): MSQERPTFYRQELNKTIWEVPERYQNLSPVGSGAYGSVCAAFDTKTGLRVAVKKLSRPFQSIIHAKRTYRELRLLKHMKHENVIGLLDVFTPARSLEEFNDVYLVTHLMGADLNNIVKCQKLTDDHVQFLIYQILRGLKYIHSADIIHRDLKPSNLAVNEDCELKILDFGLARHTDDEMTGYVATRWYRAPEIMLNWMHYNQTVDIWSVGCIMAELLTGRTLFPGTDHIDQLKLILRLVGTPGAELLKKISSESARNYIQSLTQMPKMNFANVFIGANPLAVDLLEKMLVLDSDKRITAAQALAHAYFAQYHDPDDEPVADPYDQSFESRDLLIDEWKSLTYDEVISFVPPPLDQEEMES
Chain of Mitogen-activated protein kinase 3 (P27361 whole entry): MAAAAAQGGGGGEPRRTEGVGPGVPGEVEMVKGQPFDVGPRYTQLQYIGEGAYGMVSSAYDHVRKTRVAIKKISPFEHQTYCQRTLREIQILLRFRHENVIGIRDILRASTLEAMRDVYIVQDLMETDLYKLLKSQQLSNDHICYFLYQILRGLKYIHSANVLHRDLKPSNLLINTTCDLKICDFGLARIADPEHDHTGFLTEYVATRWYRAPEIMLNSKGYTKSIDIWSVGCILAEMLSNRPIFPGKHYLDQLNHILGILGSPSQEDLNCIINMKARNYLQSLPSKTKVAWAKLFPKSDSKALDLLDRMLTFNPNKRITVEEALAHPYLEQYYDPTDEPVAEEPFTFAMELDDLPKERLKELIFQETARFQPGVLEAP

As for `COc1cccc(N2C(=O)/C(=C/c3ccc(OCC(=O)Nc4ccccc4)cc3)N=C2c2ccccc2)c1`, the values for the half-maximal inhibitory concentration (IC50) in assay [1], in assay [2] and in assay [3] were 35 nM, 65 nM and 54 nM, respectively.

Take `COc1cccc(N2C(=O)/C(=C/c3ccc(OCC(=O)Nc4ccccc4C)cc3)N=C2c2ccccc2)c1`: the IC50 in assay [1] amounted to 66 nM; in assay [2] it was 43 nM; in assay [3], 44 nM.

Take `COc1cccc(N2C(=O)/C(=C/c3ccc(OCC(=O)Nc4cccc(C)c4)cc3)N=C2c2ccccc2)c1`: the IC50 in [1] was determined as 87 nM; in assay [2] it was 20 nM; in assay [3], 43 nM.

As for `COc1cccc(N2C(=O)/C(=C/c3ccc(OCC(=O)Nc4ccc(C)cc4)cc3)N=C2c2ccccc2)c1`, the IC50 stood at 4.5 nM in assay [1]; 25 nM in assay [2]; 3.2 nM in assay [3]; 370 nM in the assay with MCF7 [4]; 670 nM with T47D [5]; 9400 nM in [6]. Further, the 50% inhibitory concentration (IC50) in the assay on HT-29 [7] was 5800 nM; in the assay with K562, over 100000 nM; in the assay on A549 [8], 6500 nM; in [9], 760 nM; in the assay with MDA-MB-435 it was 230 nM; in the assay on PC-3, 860 nM. Moreover, the IC50 with Vero [10] came out at 17300 nM. The “Ratio IC50” value worked out at 46.86 in the assay with MCF7 [11]; 25.88 in the assay on T47D [12]; 1.85 in the assay with Vero [13]; 2.98 in the assay on HT-29 [14]; 2.66 in the assay on A549 [15]; 22.81 in the assay with Vero [16]. In addition, the entries for the “Ratio IC50” value with Vero [17] and in the assay with Vero [18] were 75.39 and 20.16, respectively.

Regarding `COc1cccc(N2C(=O)/C(=C/c3ccc(OCC(=O)Nc4ccccc4OC)cc3)N=C2c2ccccc2)c1`, the concentration for half-maximal inhibition (IC50) in assay [1] turned out to be 54 nM; in assay [2], 46 nM; in assay [3], 4.7 nM.

For `COc1cccc(NC(=O)COc2ccc(/C=C3\N=C(c4ccccc4)N(c4cccc(OC)c4)C3=O)cc2)c1`, the IC50 in assay [1] is 6.5 nM; in [2], 57 nM; in assay [3], 5.4 nM.

As to `COc1ccc(NC(=O)COc2ccc(/C=C3\N=C(c4ccccc4)N(c4cccc(OC)c4)C3=O)cc2)cc1`, the 50% inhibitory concentration (IC50) in assay [1] is 4.3 nM; in assay [2], 76 nM; in [3], 4.3 nM.

For `COc1cccc(N2C(=O)/C(=C/c3ccc(OCC(=O)Nc4ccccc4Cl)cc3)N=C2c2ccccc2)c1`, the IC50 was 5.6 nM in [1], 87 nM in assay [2] and 5.3 nM in [3].

For the compound `COc1cccc(N2C(=O)/C(=C/c3ccc(OCC(=O)Nc4cccc(Cl)c4)cc3)N=C2c2ccccc2)c1`, the 50% inhibitory concentration (IC50) was 3.7 nM in assay [1], 89 nM in assay [2] and 3.4 nM in assay [3].

Consider `COc1cccc(N2C(=O)/C(=C/c3ccc(OCC(=O)Nc4ccc(Cl)cc4)cc3)N=C2c2ccccc2)c1`, for which the results for the 50% inhibitory concentration (IC50) in assay [1], in assay [2] and in assay [3] were 4.6 nM, 95 nM and 4.6 nM, respectively.

For the compound `COc1ccc(N2C(=O)/C(=C/c3ccc(OCC(=O)Nc4ccccc4)cc3)N=C2c2ccccc2)cc1`, the figures for the IC50 in [1], in assay [2] and in assay [3] were 354 nM, 23 nM and 23 nM, respectively.

Regarding `COc1ccc(N2C(=O)/C(=C/c3ccc(OCC(=O)Nc4ccccc4C)cc3)N=C2c2ccccc2)cc1`, the concentration for half-maximal inhibition (IC50) in [1] is 56 nM; in assay [2], 32 nM; in assay [3] it was 23 nM.

Turning to `COc1ccc(N2C(=O)/C(=C/c3ccc(OCC(=O)Nc4cccc(C)c4)cc3)N=C2c2ccccc2)cc1`, the 50% inhibitory concentration (IC50) in assay [1] stood at 77 nM; in [2] it was 89 nM; in [3] it was 78 nM.

Turning to `COc1ccc(N2C(=O)/C(=C/c3ccc(OCC(=O)Nc4ccc(C)cc4)cc3)N=C2c2ccccc2)cc1`, the IC50 in assay [1] came to 345 nM; in assay [2], 23 nM; in assay [3] it was 43 nM.

Turning to `COc1ccc(N2C(=O)/C(=C/c3ccc(OCC(=O)Nc4ccccc4OC)cc3)N=C2c2ccccc2)cc1`, the IC50 in [1] worked out at 34 nM; in assay [2] it was 43 nM; in [3], 89 nM.

As for `COc1ccc(N2C(=O)/C(=C/c3ccc(OCC(=O)Nc4cccc(OC)c4)cc3)N=C2c2ccccc2)cc1`, the 50% inhibitory concentration (IC50) in assay [1] turned out to be 23 nM; in assay [2], 21 nM; in assay [3], 21 nM.

With `COc1ccc(NC(=O)COc2ccc(/C=C3\N=C(c4ccccc4)N(c4ccc(OC)cc4)C3=O)cc2)cc1`, the figures for the IC50 in [1], in assay [2] and in assay [3] were 345 nM, 23 nM and 2.3 nM, respectively.

As for `COc1ccc(N2C(=O)/C(=C/c3ccc(OCC(=O)Nc4ccccc4Cl)cc3)N=C2c2ccccc2)cc1`, the concentration for half-maximal inhibition (IC50) in assay [1] worked out at 4.7 nM; in assay [2], 24 nM; in [3] it was 3.5 nM; in the assay on MCF7 [4] it was 530 nM; in the assay on T47D [5], 500 nM; in [6], 4500 nM. Besides, the IC50 was 4500 nM with HT-29 [7]; over 100000 nM in the assay with K562; 4900 nM with A549 [8]; 130 nM in [9]; 50 nM in the assay with MDA-MB-435; 990 nM in the assay on PC-3. Also, the IC50 with Vero [10] was 13200 nM. Also, the “Ratio IC50” value with MCF7 [11] is 24.9; in the assay on T47D [12] it was 26.4; in the assay with Vero [13], 2.93; in the assay on HT-29 [14], 2.93; in the assay with A549 [15], 2.69; in the assay with Vero [16], 101.54. The “Ratio IC50” value in the assay with Vero [17] was 264; with Vero [18], 13.33.

As to `COc1ccc(N2C(=O)/C(=C/c3ccc(OCC(=O)Nc4cccc(Cl)c4)cc3)N=C2c2ccccc2)cc1`, the IC50 in assay [1] was determined as 4.5 nM; in [2] it was 35 nM; in assay [3], 7 nM.

Regarding `COc1ccc(N2C(=O)/C(=C/c3ccc(OCC(=O)Nc4ccc(Cl)cc4)cc3)N=C2c2ccccc2)cc1`, the IC50 in assay [1] amounted to 44 nM; in assay [2], 47 nM; in assay [3], 4.5 nM.

As for `CNC(=O)c1cc(Oc2ccc(NC(=O)Nc3ccc(Cl)c(C(F)(F)F)c3)cc2)ccn1` [SORAFENIB], the half-inhibitory concentration (IC50) worked out at 780 nM with MCF7 [4]; 610 nM with T47D [5]; 870 nM in assay [6]; 390 nM in the assay with HT-29 [7]; 1220 nM in the assay on K562; 3190 nM with A549 [8]. Further, the IC50 in [9] was determined as 4250 nM; with MDA-MB-435 it was 1670 nM; with PC-3 it was 4130 nM.
